The source of these data is ChEMBL document CHEMBL3045955, “Design, synthesis and structure-activity relationship of novel insecticidal dichloro-allyloxy-phenol derivatives containing substituted pyrazol-3-ols” (2013).

One assay relates to Plutella xylostella. The assay is described as follows: Insecticidal activity against third-instar larvae of Plutella xylostella (diamondback moth) fed on compound treated cabbage leaves assessed as mortality at 6.25 mg/l after 3 days relative to control. The format is functional. Particulars: 72 h.
Usually mortality stands for the share of the test organisms that died. With `CCOc1ccc(-c2c(C)c(OCCCOc3c(Cl)cc(OCC=C(Cl)Cl)cc3Cl)nn2C)cc1`, the mortality at 6.25 µg/mL turned out to be 10%.
Regarding `Cn1nc(OCCCOc2c(Cl)cc(OCC=C(Cl)Cl)cc2Cl)cc1-c1ccc(Cl)cc1Cl`, the mortality at 6.25 µg/mL worked out at 0%.
With `Cc1c(OCCCOc2c(Cl)cc(OCC=C(Cl)Cl)cc2Cl)nn(C)c1-c1ccc(Cl)cc1`, the mortality at 6.25 µg/mL worked out at 20%.
In the case of `Cc1ccccc1-c1cc(OCCCOc2c(Cl)cc(OCC=C(Cl)Cl)cc2Cl)nn1C`, the mortality at 6.25 µg/mL was 40%.
In the case of `Cc1ccc(C)c(-c2c(C)c(OCCCOc3c(Cl)cc(OCC=C(Cl)Cl)cc3Cl)nn2C)c1`, the mortality at 6.25 µg/mL came to 37%.
For the molecule `COc1ccc(-c2c(C)c(OCCCOc3c(Cl)cc(OCC=C(Cl)Cl)cc3Cl)nn2C)cc1`, the mortality at 6.25 µg/mL came to 10%.
Same read-out and setting: for `CCc1ccc(-c2c(C)c(OCCCOc3c(Cl)cc(OCC=C(Cl)Cl)cc3Cl)nn2C)cc1` the value was 60%; for `Cc1c(OCCCOc2c(Cl)cc(OCC=C(Cl)Cl)cc2Cl)nn(C)c1-c1ccc(C(C)(C)C)cc1`, 30%; for `Cc1c(OCCCOc2c(Cl)cc(OCC=C(Cl)Cl)cc2Cl)nn(C)c1-c1ccc(F)cc1`, 30%.
The same measure, in the same setting: for `Cc1c(OCCCOc2c(Cl)cc(OCC=C(Cl)Cl)cc2Cl)nn(C)c1-c1ccc(Cl)cc1Cl` the value was 67%; for `Cc1c(OCCCOc2c(Cl)cc(OCC=C(Cl)Cl)cc2Cl)nn(C)c1-c1ccc(C(C)C)cc1`, 85%; for `Cc1ccc(-c2c(C)c(OCCCOc3c(Cl)cc(OCC=C(Cl)Cl)cc3Cl)nn2C)cc1`, 95%.
As for `CCc1ccc(-c2cc(OCCCOc3c(Cl)cc(OCC=C(Cl)Cl)cc3Cl)nn2C)cc1`, the mortality at 6.25 µg/mL stood at 30%.
On to `Cc1ccc(-c2cc(OCCCOc3c(Cl)cc(OCC=C(Cl)Cl)cc3Cl)nn2C)cc1C`, for which the mortality at 6.25 µg/mL came to 0%.
Regarding `Cc1ccc(-c2c(C)c(OCCOc3c(Cl)cc(OCC=C(Cl)Cl)cc3Cl)nn2C)cc1`, the mortality at 6.25 µg/mL came to 0%.
With `CCc1ccc(-c2c(C)c(OCCCCOc3c(Cl)cc(OCC=C(Cl)Cl)cc3Cl)nn2C)cc1`, the mortality at 6.25 µg/mL is 10%.
On to `Cc1c(OCCCOc2c(Cl)cc(OCC=C(Cl)Cl)cc2Cl)nn(C)c1-c1ccc(Cl)c(Cl)c1`, for which the mortality at 6.25 µg/mL worked out at 50%.
Regarding `FC(F)(F)c1ccc(OCCCOc2c(Cl)cc(OCC=C(Cl)Cl)cc2Cl)nc1` [PYRIDALYL], the mortality at 6.25 µg/mL is 65%.
Consider `CCc1ccc(-c2c(C)c(OCCOc3c(Cl)cc(OCC=C(Cl)Cl)cc3Cl)nn2C)cc1`, for which the mortality at 6.25 µg/mL came to 0%.
Turning to `Cc1ccc(-c2cc(OCCCOc3c(Cl)cc(OCC=C(Cl)Cl)cc3Cl)nn2C)c(C)c1`, the mortality at 6.25 µg/mL is 30%.
As to `Cc1ccc(-c2c(C)c(OCCCCOc3c(Cl)cc(OCC=C(Cl)Cl)cc3Cl)nn2C)cc1`, the mortality at 6.25 µg/mL is 42%.
Turning to `Cc1c(OCCCOc2c(Cl)cc(OCC=C(Cl)Cl)cc2Cl)nn(C)c1-c1ccccc1`, the mortality at 6.25 µg/mL was determined as 0%.
For the molecule `Cc1ccc(-c2c(C)c(OCCCOc3c(Cl)cc(OCC=C(Cl)Cl)cc3Cl)nn2C)c(C)c1`, the mortality at 6.25 µg/mL was determined as 30%.
Turning to `Cc1ccc(-c2c(C)c(OCCCOc3c(Cl)cc(OCC=C(Cl)Cl)cc3Cl)nn2C)cc1C`, the mortality at 6.25 µg/mL was determined as 87%.
Take `Cn1nc(OCCCOc2c(Cl)cc(OCC=C(Cl)Cl)cc2Cl)cc1-c1ccccc1`: the mortality at 6.25 µg/mL was determined as 75%.
On to `Cn1nc(OCCCOc2c(Cl)cc(OCC=C(Cl)Cl)cc2Cl)cc1-c1ccc(Cl)cc1`, for which the mortality at 6.25 µg/mL stood at 65%.

The next assay concerns Plutella xylostella. Description: Insecticidal activity against third-instar larvae of Plutella xylostella (diamondback moth) fed on compound treated cabbage leaves assessed as mortality at 25 mg/l after 3 days relative to control. The format is functional. Particulars: 72 h.
As for `CCOc1ccc(-c2c(C)c(OCCCOc3c(Cl)cc(OCC=C(Cl)Cl)cc3Cl)nn2C)cc1`, the mortality at 25 µg/mL was 20%.
Turning to `Cn1nc(OCCCOc2c(Cl)cc(OCC=C(Cl)Cl)cc2Cl)cc1-c1ccc(Cl)cc1Cl`, the mortality at 25 µg/mL worked out at 80%.
As to `Cc1c(OCCCOc2c(Cl)cc(OCC=C(Cl)Cl)cc2Cl)nn(C)c1-c1ccc(Cl)cc1`, the mortality at 25 µg/mL worked out at 50%.
As for `Cc1ccccc1-c1cc(OCCCOc2c(Cl)cc(OCC=C(Cl)Cl)cc2Cl)nn1C`, the mortality at 25 µg/mL came out at 70%.
Same read-out and setting: the same measure for `Cc1ccc(C)c(-c2c(C)c(OCCCOc3c(Cl)cc(OCC=C(Cl)Cl)cc3Cl)nn2C)c1`: 67%.
Regarding `COc1ccc(-c2c(C)c(OCCCOc3c(Cl)cc(OCC=C(Cl)Cl)cc3Cl)nn2C)cc1`, the mortality at 25 µg/mL came out at 40%.
Turning to `CCc1ccc(-c2c(C)c(OCCCOc3c(Cl)cc(OCC=C(Cl)Cl)cc3Cl)nn2C)cc1`, the mortality at 25 µg/mL stood at 77%.
`Cc1c(OCCCOc2c(Cl)cc(OCC=C(Cl)Cl)cc2Cl)nn(C)c1-c1ccc(C(C)(C)C)cc1`: the mortality at 25 µg/mL stood at 87%.
For `Cc1c(OCCCOc2c(Cl)cc(OCC=C(Cl)Cl)cc2Cl)nn(C)c1-c1ccc(F)cc1`, the mortality at 25 µg/mL was 80%.
`Cc1c(OCCCOc2c(Cl)cc(OCC=C(Cl)Cl)cc2Cl)nn(C)c1-c1ccc(Cl)cc1Cl`: the mortality at 25 µg/mL turned out to be 80%.
Consider `Cc1c(OCCCOc2c(Cl)cc(OCC=C(Cl)Cl)cc2Cl)nn(C)c1-c1ccc(C(C)C)cc1`, for which the mortality at 25 µg/mL is 100%.
On to `Cc1ccc(-c2c(C)c(OCCCOc3c(Cl)cc(OCC=C(Cl)Cl)cc3Cl)nn2C)cc1`, for which the mortality at 25 µg/mL stood at 100%.
`CCc1ccc(-c2cc(OCCCOc3c(Cl)cc(OCC=C(Cl)Cl)cc3Cl)nn2C)cc1`: the mortality at 25 µg/mL amounted to 40%.
Still for that read-out and setting: for `Cc1ccc(-c2cc(OCCCOc3c(Cl)cc(OCC=C(Cl)Cl)cc3Cl)nn2C)cc1C` the value was 50%.
Turning to `Cc1ccc(-c2c(C)c(OCCOc3c(Cl)cc(OCC=C(Cl)Cl)cc3Cl)nn2C)cc1`, the mortality at 25 µg/mL came to 0%.
With `CCc1ccc(-c2c(C)c(OCCCCOc3c(Cl)cc(OCC=C(Cl)Cl)cc3Cl)nn2C)cc1`, the mortality at 25 µg/mL was found to be 50%.
Take `Cc1c(OCCCOc2c(Cl)cc(OCC=C(Cl)Cl)cc2Cl)nn(C)c1-c1ccc(Cl)c(Cl)c1`: the mortality at 25 µg/mL amounted to 75%.
Regarding `FC(F)(F)c1ccc(OCCCOc2c(Cl)cc(OCC=C(Cl)Cl)cc2Cl)nc1` [PYRIDALYL], the mortality at 25 µg/mL worked out at 100%.
Consider `CCc1ccc(-c2c(C)c(OCCOc3c(Cl)cc(OCC=C(Cl)Cl)cc3Cl)nn2C)cc1`, for which the mortality at 25 µg/mL is 33%.
As to `Cc1ccc(-c2cc(OCCCOc3c(Cl)cc(OCC=C(Cl)Cl)cc3Cl)nn2C)c(C)c1`, the mortality at 25 µg/mL is 50%.
On to `Cc1ccc(-c2c(C)c(OCCCCOc3c(Cl)cc(OCC=C(Cl)Cl)cc3Cl)nn2C)cc1`, for which the mortality at 25 µg/mL came to 50%.
Same read-out and setting: for `Cc1c(OCCCOc2c(Cl)cc(OCC=C(Cl)Cl)cc2Cl)nn(C)c1-c1ccccc1` the value was 30%; for `Cc1ccc(-c2c(C)c(OCCCOc3c(Cl)cc(OCC=C(Cl)Cl)cc3Cl)nn2C)c(C)c1`, 60%.
`Cc1ccc(-c2c(C)c(OCCCOc3c(Cl)cc(OCC=C(Cl)Cl)cc3Cl)nn2C)cc1C`: the mortality at 25 µg/mL was 100%.
`Cn1nc(OCCCOc2c(Cl)cc(OCC=C(Cl)Cl)cc2Cl)cc1-c1ccccc1`: the mortality at 25 µg/mL is 100%.
Regarding `Cn1nc(OCCCOc2c(Cl)cc(OCC=C(Cl)Cl)cc2Cl)cc1-c1ccc(Cl)cc1`, the mortality at 25 µg/mL is 100%.

A further assay has as its system Plutella xylostella. The assay is described as follows: Insecticidal activity against third-instar larvae of Plutella xylostella (diamondback moth) fed on compound treated cabbage leaves assessed as mortality at 100 mg/l after 3 days relative to control. The format is functional. Conditions: 72 h.
Consider `CCOc1ccc(-c2c(C)c(OCCCOc3c(Cl)cc(OCC=C(Cl)Cl)cc3Cl)nn2C)cc1`, for which the mortality at 100 µg/mL came to 100%.
On the same count and under the same terms, the same measure for `Cn1nc(OCCCOc2c(Cl)cc(OCC=C(Cl)Cl)cc2Cl)cc1-c1ccc(Cl)cc1Cl`: 100%; for `Cc1c(OCCCOc2c(Cl)cc(OCC=C(Cl)Cl)cc2Cl)nn(C)c1-c1ccc(Cl)cc1`: 80%.
The same measure, in the same setting: for `Cc1ccccc1-c1cc(OCCCOc2c(Cl)cc(OCC=C(Cl)Cl)cc2Cl)nn1C` the value was 100%; for `Cc1ccc(C)c(-c2c(C)c(OCCCOc3c(Cl)cc(OCC=C(Cl)Cl)cc3Cl)nn2C)c1`, 75%.
Still for that read-out and setting: for `COc1ccc(-c2c(C)c(OCCCOc3c(Cl)cc(OCC=C(Cl)Cl)cc3Cl)nn2C)cc1` the value was 100%; for `CCc1ccc(-c2c(C)c(OCCCOc3c(Cl)cc(OCC=C(Cl)Cl)cc3Cl)nn2C)cc1`, 100%; for `Cc1c(OCCCOc2c(Cl)cc(OCC=C(Cl)Cl)cc2Cl)nn(C)c1-c1ccc(C(C)(C)C)cc1`, 100%.
`Cc1c(OCCCOc2c(Cl)cc(OCC=C(Cl)Cl)cc2Cl)nn(C)c1-c1ccc(F)cc1`: the mortality at 100 µg/mL is 100%.
On the same count and under the same terms, the same measure for `Cc1c(OCCCOc2c(Cl)cc(OCC=C(Cl)Cl)cc2Cl)nn(C)c1-c1ccc(Cl)cc1Cl`: 85%; for `Cc1c(OCCCOc2c(Cl)cc(OCC=C(Cl)Cl)cc2Cl)nn(C)c1-c1ccc(C(C)C)cc1`: 100%; for `Cc1ccc(-c2c(C)c(OCCCOc3c(Cl)cc(OCC=C(Cl)Cl)cc3Cl)nn2C)cc1`: 100%.
For the molecule `CCc1ccc(-c2cc(OCCCOc3c(Cl)cc(OCC=C(Cl)Cl)cc3Cl)nn2C)cc1`, the mortality at 100 µg/mL was found to be 70%.
For `Cc1ccc(-c2cc(OCCCOc3c(Cl)cc(OCC=C(Cl)Cl)cc3Cl)nn2C)cc1C`, the mortality at 100 µg/mL is 80%.
Same read-out and setting: the same measure for `Cc1ccc(-c2c(C)c(OCCOc3c(Cl)cc(OCC=C(Cl)Cl)cc3Cl)nn2C)cc1`: 17%; for `CCc1ccc(-c2c(C)c(OCCCCOc3c(Cl)cc(OCC=C(Cl)Cl)cc3Cl)nn2C)cc1`: 100%; for `Cc1c(OCCCOc2c(Cl)cc(OCC=C(Cl)Cl)cc2Cl)nn(C)c1-c1ccc(Cl)c(Cl)c1`: 100%.
Consider `FC(F)(F)c1ccc(OCCCOc2c(Cl)cc(OCC=C(Cl)Cl)cc2Cl)nc1` [PYRIDALYL], for which the mortality at 100 µg/mL is 100%.
In the case of `CCc1ccc(-c2c(C)c(OCCOc3c(Cl)cc(OCC=C(Cl)Cl)cc3Cl)nn2C)cc1`, the mortality at 100 µg/mL was determined as 67%.
With `Cc1ccc(-c2cc(OCCCOc3c(Cl)cc(OCC=C(Cl)Cl)cc3Cl)nn2C)c(C)c1`, the mortality at 100 µg/mL came out at 90%.
For `Cc1ccc(-c2c(C)c(OCCCCOc3c(Cl)cc(OCC=C(Cl)Cl)cc3Cl)nn2C)cc1`, the mortality at 100 µg/mL was determined as 100%.
Take `Cc1c(OCCCOc2c(Cl)cc(OCC=C(Cl)Cl)cc2Cl)nn(C)c1-c1ccccc1`: the mortality at 100 µg/mL came out at 100%.
Same read-out and setting: the same measure for `Cc1ccc(-c2c(C)c(OCCCOc3c(Cl)cc(OCC=C(Cl)Cl)cc3Cl)nn2C)c(C)c1`: 90%.
The same measure, in the same setting: for `Cc1ccc(-c2c(C)c(OCCCOc3c(Cl)cc(OCC=C(Cl)Cl)cc3Cl)nn2C)cc1C` the value was 100%.
Regarding `Cn1nc(OCCCOc2c(Cl)cc(OCC=C(Cl)Cl)cc2Cl)cc1-c1ccccc1`, the mortality at 100 µg/mL came out at 100%.
For the molecule `Cn1nc(OCCCOc2c(Cl)cc(OCC=C(Cl)Cl)cc2Cl)cc1-c1ccc(Cl)cc1`, the mortality at 100 µg/mL was determined as 100%.
